Consider one molecule from US20250302846A1, “ANTIBIOTIC COMPOSITION AND METHODS OF USE THEREOF” (THE REGENTS OF THE UNIVERSITY OF COLORADO A BODY CORPORATE, priority 2022, published 2025).

Series [1] deals with S. Typhimurium SL1344 or 14028 in RAW 264.7 cells. The series can be described thus: CFU assay in infected RAW 264.7 macrophages. As to conditions: for IC50: Salmonella enterica, TYPHIMURIUM
The series is classed as cell-based. As for the experimental part:
FIG. 1A-D. D66 is a small molecule that prevents S. Typhimurium replication and/or survival in macrophages. A). Structure of D66. B) RAW264.7 macrophage-like cells were infected with S. Typhimurium harboring a chromosomal sifB: : gfp reporter, treated with DMSO or D66 at two hours after infection, and monitored for bacterial accumulation (GFP+Macrophage Area) over 16 hours using the SAFIRE (Screen for Anti-infectives using Fluorescence microscopy of Intracellular Enterobacteriaceae) assay. The IC50 value is indicated. Mean and SD of biological duplicates with technical duplicates across 9 dilutions of D66. C, D) CFU assays were performed with RAW264.7 or HeLa cells infected with S. Typhimurium SL1344 or 14028 for two hours and treated for 16 hours with DMSO or 1.5-fold dilutions of D66, prior to lysis and plating for CFU. Symbols on the Y-axes are the CFU value from DMSO-treated samples. The IC50 values are indicated. Mean and SEMs of biological triplicates with technical duplicates across 8 dilutions of D66.
CFU assays were performed with RAW 264.7 cells seeded as above or with Hela cells (ATCC CCL-2) seeded at 1x10^4 cells per 96-well. Cells were infected as described above with either S. Typhimurium SL1344 or 14028, as indicated at an approximate MOI of 30 bacteria per RAW 264.7 cell and 150 bacteria per HeLa cell. Plates were centrifuged and gentamicin treated as above. At 18 hours after infection, wells were washed twice with PBS and lysed with 30 μL 0.1% Triton X-100 in PBS for five minutes. Lysed cells were plated to L-agar and enumerated for CFU.

Series [2] relates to S. Typhimurium SL1344. The series can be described thus: Novobiocin potentiation (checkerboard) assay. The format is cell-based. The conditions noted are these: LB, 18 hours, D66 up to 150 μM, novobiocin up to 100 μg/mL. As for the experimental part: A, B) Dose response curves monitoring S. Typhimurium (SL1344) or E. coli (K12) growth from an OD600 of 0.01, normalized to growth in 2% DMSO under the indicated condition. Mean and SEM of at least three biological replicates performed with technical triplicates; curve fit: sigmoidal, 4P L. C-E) Checkerboard assays of S. Typhimurium SL1344 growth from an OD600 of 0.01 in LB for 18 hours with novobiocin (up to 100 μg/mL) and (C) PMB (up to 48 μM), (D) JDI (up to 150 μM), or (E) D66 (up to 150 μM). Growth was normalized to growth in 2% DMSO, with the darkest blue representing 100% growth and white representing 0%.
Novobiocin potentiation assays: Overnight LB-grown cultures were diluted in LB to an optical density at 600 nm (OD600) of 0.01 and distributed into polystyrene 96-well flat-bottom plates (Greiner, 655185). […] The final DMSO concentration was at or below 2%. Plates were grown at 37° C. with shaking for 18 hours and OD600 was monitored (BioTek Synergy H1).

In series [3] the test system is S. Typhimurium. Kind of series: Propidium iodide membrane barrier assay. The format is cell-based. As for the experimental part: FIG. 3A-F. D66 rapidly perturbs the bacterial cytoplasmic membrane with minor disruption of barrier function. Mid-log phase S. Typhimurium cells grown in LB with 0.5 μg/mL PMB were used for all experiments. A) Cell membrane potential was monitored with the fluorescent dye DiSC3 (5). Cells were treated at time 0 with DMSO, JD1 [70 μM], or D66. Data were normalized to DMSO at time 0 and corrected for the quenching effect of D66 (FIG. 6A, B) B) Cell membrane permeability was monitored by PI fluorescence. Cells were treated at time 0 with DMSO, SDS [0.005%] or D66. Samples were processed at the time points shown. A one-way ANOVA with a Dunnet's multiple comparison test, * P<0.005. C-F) Growth curves and kill-curves of cells treated at time 0 with either DMSO or D66. Culture aliquots were monitored for OD600 (C, E) or plated for enumeration of CFU (D, F). Data are presented as fold change. Mean and SEM of three biological replicates with technical triplicates are shown in all panels.
Propidium iodide membrane barrier assays: Compound, DMSO, or SDS was added to mid-log phase cells to the desired concentration, and cultures were sampled at 0, 10, 15, 20, 30 and 45 minutes. Five minutes before harvesting, PI [10 μg/mL] (Life Technologies) was added. Cells were pelleted, washed twice, resuspended in PBS, and monitored (ex535/em617 nm) using a BioTek Synergy H1 plate reader.

The subject of series [4] is S. aureus FDA209. Kind of series: Growth inhibition in broth (MIC95). As to conditions: Staphylococcus aureus. The series is classed as cell-based. As for the experimental part:
FIG. 8A-B. […] inhibits the growth of Gram-positive bacteria in broth. A) Dose response curves monitoring staphylococcal and B. subtills growth in the presence of […] from an OD600 of 0.01, normalized to growth in 2% DMSO after 18 hours. Mean and SEM of at least three biological replicates performed with technical triplicates. B) Table of […] concentrations that inhibit growth. For comparison, S. Typhimurium is included.

The test system of series [5] is 5-day-old staphylococcal biofilms. Kind of series: 5-day-old staphylococcal biofilms. The series is classed as cell-based. The conditions noted are these: biofilms established 5 days in TSB, treated 18 hours, crystal violet. As for the experimental part: (A-D). For the indicated strain, biofilms established in TSB for 5-days were treated for 18 hours with DMSO, rifampin (1x MIC95=0.05 μg/mL), vancomycin (1x MIC95=1 μg/mL), or D66 (Table 1). The remaining biofilm extracellular matrix was stained with crystal violet and the A595 was measured. Mean and SEM of three biological replicates performed with technical triplicates are shown. Asterisks indicate P≤0.05 as determined by one-way ANOVA compared to DMSO.

The test system of series [6] is RAW 264.7 cells. The series can be described thus: Mitochondrial membrane potential with TMRM. The conditions noted are these: uninfected RAW 264.7 cells; D66 first two hours; CCCP 7 μM.

Converted amounts (≈) assume the structure as drawn. Like-named read-outs stand apart in the source and are kept apart here.

By IC50 is commonly meant the concentration that gives 50% inhibition. In general, MIC refers to the lowest concentration that inhibits growth of the organism. Low values mean inhibition by little substance, high ones a need for much substance. In the case of `O=C(Nc1cc(Cl)cc(Cl)c1)N1CCCN(Cc2ccccc2)CC1` [D66], the IC50 in series [1] (RAW264.7, 16 h, S. Typhimurium 14028 in macrophages, treated 16 hours, read-out: CFU IC50) was 4.9 µM; in series [1] (RAW264.7, 16 h, S. Typhimurium SL1344 in macrophages, treated 16 hours, read-out: CFU IC50), 7.7 µM; in series [1] (RAW264.7, as quoted for dose selection, read-out: IC50 of D66 against S. Typhimurium in macrophages), roughly 7.8 µM. Also, the CFU reduction in series [1] (macrophages) is on record as greater than 1000 fold. Further, the “potentiation of growth inhibition with novobiocin” value in series [2] was “did not potentiate novobiocin”. In series [3] (LB with PMB [0.5 μg/mL], D66 at 1x MIC95), the “time elapsed prior to an increase in PI fluorescence” value was found to be 45 min. Moreover, the “time of treatment after which PI signal increased” value in series [3] (LB with PMB [0.5 μg/mL], D66 at 2x MIC95, SDS [0.005%] positive control) worked out at 10 min. Besides, the PI signal increase result in series [3] (at 1x MIC, within 30 minutes) is reported as “two-fold”. Further, the MIC in series [4] came to 130 µM (≈ 49.2 µg/mL). Also, in series [5], the “reduction of 5-day-old biofilms” value is reported as “minimally effective”. Besides, in series [6], the “TMRM fluorescence (mitochondrial membrane potential)” value is on record as “increased TMRM signal in a dose-dependent manner”.
